{
  "source": "patent US6610282B1",
  "about": "“Polymeric controlled release compositions” (Rohm and Haas Company, priority 1998, dated 2003)",
  "assay": "Release of 4,5-dichloro-2-octyl-3-isothiazolone from dry marine paint film in synthetic sea water",
  "assay_type": "physicochemical",
  "settings": "14 Days in synthetic sea water; marine paint film with 5%wt active on glass slides, dried 6 days; HPLC of film extract",
  "procedure": "The compositions of Example 1 were evaluated for the control of the release of biologically active molecules in a marine paint.\nA blank paint, that is one that contained no biologically active molecules, was dosed with Samples 2-5. The amount of the samples added was such that the total amount of 4,5-dichloro-2-octyl-3-isothiazolone in the paint was 5%wt, based on the total weight of the dry paint film. A control paint was prepared by adding 4,5-dichloro-2-octyl-3-isothiazolone alone. Glass slides were painted with the treated paints as well as the control paint and allowed to dry in a hood for 6 days. The slides were then submerged in a tank of synthetic sea water. The slides were removed after 14 days and the paint film extracted. The extracts were analyzed by HPLC to determine the amount of 4,5-dichloro-2-octyl-3-isothiazolone remaining.",
  "data": [
    {"smiles": "CCCCCCCCn1sc(Cl)c(Cl)c1=O", "note": "[Control, 4,5-dichloro-2-octyl-3-isothiazolone]", "values": [
      {"measurement": "% of 4,5-Dichloro-2-n-octyl-3-isothiazolone Released", "result": 29.0, "unit": "%"}
    ]}
  ]
}
